Measured values as given in paper PMC5271370, “A High-Content Assay Enables the Automated Screening and Identification of Small Molecules with Specific ALDH1A1-Inhibitory Activity” (PLoS ONE, 2017).
pIC50: −log10 of the molar value. Read-outs that look alike come from different tables or passages of the source.

Key:
Type in all cases: biochemical
Human ALDH1A1 = target: T1, Human ALDH1A1 (Homo sapiens, UniProt P00352); test: 1,536-well enzymatic assay (NADH fluorescence), ALDH1A1
T1 construct: made in house
T1 sequence (P00352 1-501): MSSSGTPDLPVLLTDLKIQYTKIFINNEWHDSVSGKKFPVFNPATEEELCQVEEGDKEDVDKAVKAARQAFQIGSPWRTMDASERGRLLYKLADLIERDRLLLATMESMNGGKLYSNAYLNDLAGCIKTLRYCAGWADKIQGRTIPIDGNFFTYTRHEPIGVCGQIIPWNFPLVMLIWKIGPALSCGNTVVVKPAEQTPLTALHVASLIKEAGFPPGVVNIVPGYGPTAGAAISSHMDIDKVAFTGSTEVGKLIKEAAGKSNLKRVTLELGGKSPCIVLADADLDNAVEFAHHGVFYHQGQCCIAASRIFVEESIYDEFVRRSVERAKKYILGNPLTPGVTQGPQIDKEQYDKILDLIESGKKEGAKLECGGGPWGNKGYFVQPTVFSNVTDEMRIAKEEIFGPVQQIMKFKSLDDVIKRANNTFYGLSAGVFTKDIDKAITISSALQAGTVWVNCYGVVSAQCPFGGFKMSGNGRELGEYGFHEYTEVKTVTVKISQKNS
Text: (§1) To validate our optimized assay, we assembled a set of 20 previously reported ALDH inhibitors, with varying degrees of target specificity (Table 1 and S4 Fig). […] Briefly, the assay measures the dehydrogenase activity of recombinant human ALDH1A1, ALDH1A2, ALDH1A3, ALDH2 or ALDH3A1 using NAD(P)^+ and either propionaldehyde or benzaldehyde as substrates. An orthogonal resorufin-based assay format was also run with isolated ALDH1A1 to rule out potential false positives due to intrinsic compound fluorescence.
(§2) Human ALDH1A1 and ALDH3A1 were expressed and purified as described elsewhere. Human ALDH2 was purchased from Abcam (ab87415). Human ALDH1A2 and ALDH1A3 were purchased from MyBioSource (MBS1005929; San Diego, CA) and ThermoFisher (11636H07E50), respectively. The inhibitory activity of compounds against ALDHs was measured according to protocols described previously. Briefly, 3 μL of enzyme (final concentrations of 20 nM for ALDH1A1, 50 nM for ALDH1A2, 50 nM for ALDH1A3, 75 nM for ALDH2 and 5 nM for ALDH3A1) in assay buffer (100 mM HEPES pH 7.5 with 0.01% Tween 20) were dispensed into a 1,536-well solid-bottom black plate (Greiner Bio One, Monroe, NC). […] Samples were incubated (room temperature, protected from light) for 15 minutes followed by a 1 μL substrate addition of NAD^+ and Propionaldehyde (final concentrations of 1 mM and 80 μM, respectively) for ALDH1A1, 1A2, 1A3, and ALDH2 or NADP^+ and benzaldehyde (final concentrations of 1 mM and 200 μM, respectively) for ALDH3A1. Plates were centrifuged at 1,000 rpm for 15 seconds, then read in kinetic mode on a ViewLux High-throughput CCD imager (PerkinElmer, Waltham, MA) equipped with standard UV fluorescence optics (340 nm excitation, 450 nm emission) for 5 (ALDH1A1, ALDH1A2, ALDH2, ALDH3A1) or 30 (ALDH1A3) minutes. The change in fluorescence intensity over the 5- or 30-minute reaction period was normalized against no-inhibitor and no-enzyme controls and the resulting percent inhibition data were fitted to a 4-parameter Hill equation. Bay-11 7085 was used as intraplate control. To account for artifacts due to intrinsic compound fluorescence in the above spectrum, compounds were also tested in an orthogonal resorufin assay format with optics of excitation 525 nm/emission 598 nm as described before. The same parameters as the NADH assay were used for the resorufin assay, with the addition of (final) 133 μg/mL diaphorase and 37 μM resazurin to the assay solution. Same controls were used in both formats.

Human ALDH2 = target: T2, Human ALDH2 (Homo sapiens, UniProt P05091); test: 1,536-well enzymatic assay (NADH fluorescence), ALDH2
T2 construct: purchased Abcam ab87415
T2 sequence (P05091 18-517): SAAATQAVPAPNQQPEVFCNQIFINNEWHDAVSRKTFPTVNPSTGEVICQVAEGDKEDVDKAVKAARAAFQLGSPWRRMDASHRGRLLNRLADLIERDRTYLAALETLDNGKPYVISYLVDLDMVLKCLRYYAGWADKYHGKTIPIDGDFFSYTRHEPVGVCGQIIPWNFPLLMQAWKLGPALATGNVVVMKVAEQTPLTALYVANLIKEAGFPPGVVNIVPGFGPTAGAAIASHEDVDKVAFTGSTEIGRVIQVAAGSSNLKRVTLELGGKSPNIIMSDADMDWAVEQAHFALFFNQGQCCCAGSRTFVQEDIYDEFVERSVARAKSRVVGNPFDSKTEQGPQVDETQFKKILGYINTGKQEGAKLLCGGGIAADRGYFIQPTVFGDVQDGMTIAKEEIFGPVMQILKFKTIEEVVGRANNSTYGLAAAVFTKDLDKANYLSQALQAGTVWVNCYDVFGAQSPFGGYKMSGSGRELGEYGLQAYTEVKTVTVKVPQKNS
Text: as §1, §2

Human ALDH1A2 = target: T3, Human ALDH1A2 (Homo sapiens, UniProt O94788); test: 1,536-well enzymatic assay (NADH fluorescence), ALDH1A2
T3 construct: purchased MyBioSource MBS1005929
T3 sequence (O94788 1-518): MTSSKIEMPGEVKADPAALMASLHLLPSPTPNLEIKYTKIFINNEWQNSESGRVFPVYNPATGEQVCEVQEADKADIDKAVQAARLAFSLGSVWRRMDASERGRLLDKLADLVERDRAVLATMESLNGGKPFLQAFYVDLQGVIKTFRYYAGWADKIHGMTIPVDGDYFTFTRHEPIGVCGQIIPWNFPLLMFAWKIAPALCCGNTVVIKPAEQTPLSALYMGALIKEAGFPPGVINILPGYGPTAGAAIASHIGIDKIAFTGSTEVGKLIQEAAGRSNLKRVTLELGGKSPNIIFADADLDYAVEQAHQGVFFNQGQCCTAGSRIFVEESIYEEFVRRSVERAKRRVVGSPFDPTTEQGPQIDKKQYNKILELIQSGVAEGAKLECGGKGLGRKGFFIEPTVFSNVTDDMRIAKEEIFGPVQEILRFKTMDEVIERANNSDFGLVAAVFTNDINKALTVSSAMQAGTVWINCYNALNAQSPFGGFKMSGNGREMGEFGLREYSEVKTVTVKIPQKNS
Text: as §1, §2

[1] = validation set, 20 nM enzyme, NAD+ and propionaldehyde, read-out: Biochemical IC50 ALDH1A1
[2] = validation set, 75 nM enzyme, NAD+ and propionaldehyde, read-out: Biochemical IC50 ALDH2
[3] = validation set, 50 nM enzyme, NAD+ and propionaldehyde, read-out: Biochemical IC50 ALDH1A2
[4] = hits of dual cell-based screen (Table 2), read-out: Biochemical IC50 ALDH1A1

Molecule | pIC50 (Human ALDH1A1; [1]) | pIC50 (Human ALDH2; [2]) | pIC50 (Human ALDH1A2; [3]) | other results
COc1ccc(C(=O)CCN(C)C)cc1F [Aldi-2] | 6.82 | 7.00 | 6.92 | 
CC(C)(C)c1ccc(S(=O)(=O)/C=C/C#N)cc1 [Bay-11-7085] | 7.05 | 7.30 | 6.42 | 
CCN(CC)c1ccc(C=O)cc1 [DEAB, 4-N,N-diethylaminobenzaldehyde] |  |  | 5.47 | 
O=c1c(-c2ccc(O)cc2)coc2cc(O[C@@H]3O[C@H](CO)[C@@H](O)[C@H](O)[C@H]3O)ccc12 [Daidzin] |  |  |  | pIC50 (Human ALDH1A2): 4.67
Cc1cc2c(C(C)C)c(O)c(O)c(C=O)c2c(O)c1-c1c(C)cc2c(C(C)C)c(O)c(O)c(C=O)c2c1O [Gossypol] |  |  |  | pIC50 (Human ALDH1A1; Biochemical IC50 ALDH1A1, validation set, 20 nM enzyme, NAD+ and propionaldehyde): 4.59; pIC50 (Human ALDH1A2): 5.27; pIC50 (Human ALDH2): 4.62
C[S+](=O)([O-])c1ccc(Cn2c3c(c4cc(F)cc(F)c42)CCCC3CC(=O)O)cc1 [L-670596] |  |  |  | pIC50 (Human ALDH1A1; [4]): 6.60
CC(C)N(C(=O)CCl)c1ccccc1 [Propachlor] |  |  |  | pIC50 (Human ALDH1A1; [4]): 8.00; pIC50 (Human ALDH1A2; hits of dual cell-based screen (Table 2), read-out: Biochemical IC50 ALDH1A2): 6.49; pIC50 (Human ALDH2; hits of dual cell-based screen (Table 2), read-out: Biochemical IC50 ALDH2): 4.90
O=C1Nc2ccccc2C1=O [indoline-2,3-dione] | 8.00 | 4.67 | 6.17 | 

More lines, main results first:

pIC50 (Human ALDH1A1; [1]) | pIC50 (Human ALDH2; [2]) | pIC50 (Human ALDH1A2; [3]) | Molecule | other results
4.97 | 5.37 |  | CC(C)=CCCC(C)=CC=O (mixture of isomers) [Citral] | 
 | 4.72 | 4.82 | Cc1nc2ccccc2n1S(=O)(=O)c1ccc(F)cc1 [CB7] | 
6.11 | 5.67 | 6.47 | CCOc1ccc(NCC(=O)Nc2ccc(Cl)cc2C)cc1 [CID 725345] | 
6.54 | 5.02 | 5.52 | COc1cccc2cc(C(=O)CC3(O)C(=O)N(Cc4ccccc4)c4ccccc43)c(=O)oc12 (centres unmarked) [CID 2929292] | 
 |  | 6.85 | CCN(CC)C(=S)SSC(=S)N(CC)CC [Disulfiram] | 
4.39 |  | 4.62 | Nc1ccccc1C(=O)CC(N)C(=O)O (centres unmarked) [Kynurenine] | 
 |  | 4.62 | C#CCN(C)Cc1ccccc1 [Pargyline] | 
4.72 | 5.92 | 6.47 | CVT-10216 | 
